Values after ≈ are worked out from the molar mass of the structure shown. Active and inactive are the calls of the source. The rule behind the calls is not given here.
Tests used:
[1] = test system: Cell membrane; assay: Induction of cytoplasmic membrane permeabilization in Pseudomonas aeruginosa ATCC 9027 assessed as disruption of cell membrane integrity measured upto 60 mins by measuring increase in fluorescence intensity at 1 to 8 times of MIC concentration by SYTOX green dye based fluorescence analysis; format: cell membranes
[2] = test system: Klebsiella pneumoniae; assay: Antibacterial activity against Klebsiella pneumoniae ATCC 10031 assessed as inhibition of bacterial growth incubated for 24 hrs in presence of 140 mM Na+ by broth dilution method; format: functional
[3] = test system: Escherichia coli; assay: Antibacterial activity against Escherichia coli ATCC 25922 assessed as inhibition of bacterial growth incubated for 24 hrs in presence of 140 mM Na+ by broth dilution method; format: functional
[4] = test system: Staphylococcus aureus; assay: Bactericidal activity against methicillin-resistant Staphylococcus aureus NCTC 10442 assessed as down-regulation of biological processes related gene expression by measuring glutamate metabolic process (GO:0006536) at 4 times of MIC concentration measured after 90 mins incubation by RNA sequencing (RNA-seq) study; format: functional, organism-based
[5] = test system: Acinetobacter baumannii; assay: Antibacterial activity against Acinetobacter baumannii ATCC 17978 assessed as inhibition of bacterial growth incubated for 24 hrs by broth dilution method; format: functional
[6] = test system: Lipopolysaccharide (LPS); assay: Displacement of BODIPY-TR-cadaverine from Escherichia coli lipopolysaccharide (LPS) assessed as increase in fluorescence intensity at 1 times MIC measured after 30 mins by fluorescence spectrophotometric analysis; format: subcellular
[7] = test system: Staphylococcus aureus; assay: Antibacterial activity against Staphylococcus aureus ATCC 29213 assessed as inhibition of bacterial growth incubated for 24 hrs in presence of 20 uM Fe3+ by broth dilution method; format: functional
[8] = test system: Staphylococcus aureus; assay: Bactericidal activity against methicillin-resistant Staphylococcus aureus NCTC 10442 assessed as bacterial killing at 8 time of MIC concentration incubated for 0.5 hrs by time-kill assay; format: functional
[9] = Cytotoxicity against human HepG2 cells assessed as viable cells at 3.125 microg/ml incubated for 24 hrs by CCK-8 assay; format: toxicity, cell-based; conditions: at 3.125 µg/mL, read-out: Activity
[10] = test system: Staphylococcus aureus; assay: Antibacterial activity against methicillin-resistant Staphylococcus aureus NCTC 10442 assessed as inhibition of bacterial growth incubated for 24 hrs in presence of 20 uM Fe2+ by broth dilution method; format: functional
[11] = test system: Lipopolysaccharide (LPS); assay: Displacement of BODIPY-TR-cadaverine from Escherichia coli lipopolysaccharide (LPS) assessed as increase in fluorescence intensity at 2 times MIC measured after 30 mins by fluorescence spectrophotometric analysis; format: subcellular
[12] = test system: Klebsiella pneumoniae; assay: Antibacterial activity against Klebsiella pneumoniae ATCC 10031 assessed as inhibition of bacterial growth incubated for 24 hrs in presence of 1 mM Mg2+ by broth dilution method; format: functional
[13] = test system: Lipoteichoic acid; assay: Displacement of BODIPY-TR-cadaverine from Bacillus subtilis lipoteichoic acid (LTA) assessed as increase in fluorescence intensity at 1 times MIC measured after 30 mins by fluorescence spectrophotometric analysis
[14] = Cytotoxicity against mouse fibroblast NCTC clone 929 cells assessed as viable cells at 3.125 microg/ml incubated for 24 hrs by CCK-8 assay; format: toxicity, cell-based; conditions: NCTC clone 929 (L929) fibroblast cells, at 3.125 µg/mL, read-out: Activity
[15] = test system: Staphylococcus aureus; assay: Bactericidal activity against methicillin-resistant Staphylococcus aureus NCTC 10442 assessed as down-regulation of biological processes related gene expression by measuring pyrimidine ribonucleoside monophosphate metabolic (GO:0009173) at 4 times of MIC concentration measured after 90 mins incubation by RNA sequencing (RNA-seq) study; format: functional, organism-based
[16] = test system: Acinetobacter baumannii; assay: Antibacterial activity against Acinetobacter baumannii R2889 assessed as inhibition of bacterial growth incubated for 24 hrs by broth dilution method; format: functional
[17] = test system: Staphylococcus aureus; assay: Antibacterial activity against Staphylococcus aureus ATCC 29213 assessed as inhibition of bacterial growth incubated for 24 hrs in presence of 20 uM Fe2+ by broth dilution method; format: functional
[18] = test system: Escherichia coli; assay: Bactericidal activity against Escherichia coli ATCC 25922 assessed as change in metabolic stress associated gene expression by measuring down-regulation of gale (DX983_RS06370) gene expression at 4 times of MIC concentration measured after 90 mins incubation by RNA sequencing (RNA-seq) study; format: functional, organism-based
[19] = test system: Escherichia coli; assay: Bactericidal activity against Escherichia coli ATCC 25922 assessed as change in cell death associated gene expression by measuring down-regulation of LPS export ABC transporter periplasmic-encoding gene (lptC, D1792_RS12575) gene expression at 4 times of MIC concentration measured after 90 mins incubation by RNA sequencing (RNA-seq) study; format: functional, organism-based
[20] = test system: Escherichia coli; assay: Bactericidal activity against Escherichia coli ATCC 25922 assessed as change in cell death associated gene expression by measuring down-regulation of the inner membrane protein-coding gene (yqiJ, D1792_RS11855) gene expression at 4 times of MIC concentration measured after 90 mins incubation by RNA sequencing (RNA-seq) study; format: functional, organism-based
[21] = test system: Lipoteichoic acid; assay: Displacement of BODIPY-TR-cadaverine from Bacillus subtilis lipoteichoic acid (LTA) assessed as increase in fluorescence intensity at 4 times MIC measured after 30 mins by fluorescence spectrophotometric analysis
[22] = test system: Staphylococcus aureus; assay: Antibacterial activity against Staphylococcus aureus ATCC 29213 assessed as inhibition of bacterial growth incubated for 24 hrs in presence of 1 mM Mg2+ by broth dilution method; format: functional
[23] = test system: Staphylococcus aureus; assay: Antibacterial activity against Staphylococcus aureus ATCC 29213 assessed as inhibition of bacterial growth incubated for 24 hrs in presence of 19 uM Zn2+ by broth dilution method; format: functional
[24] = test system: Pseudomonas aeruginosa; assay: Antibacterial activity against Pseudomonas aeruginosa ATCC 9027 assessed as inhibition of bacterial growth incubated for 24 hrs by broth dilution method; format: functional
[25] = test system: Lipoteichoic acid; assay: Displacement of BODIPY-TR-cadaverine from Bacillus subtilis lipoteichoic acid (LTA) assessed as increase in fluorescence intensity at 2 times MIC measured after 30 mins by fluorescence spectrophotometric analysis
[26] = test system: Staphylococcus aureus; assay: Antibacterial activity against methicillin-resistant Staphylococcus aureus NCTC 10442 assessed as inhibition of bacterial growth incubated for 24 hrs in presence of 2.5 mM Ca2+ by broth dilution method; format: functional
[27] = test system: Staphylococcus aureus; assay: Antibacterial activity against Staphylococcus aureus ATCC 29213 assessed as inhibition of bacterial growth incubated for 24 hrs in presence of 2.5 mM Ca2+ by broth dilution method; format: functional
[28] = Cytotoxicity against human HepG2 cells assessed as viable cells at […] microg/ml incubated for 24 hrs by CCK-8 assay; format: toxicity, cell-based; conditions: dose 1.56 µg/ml, read-out: Activity
[29] = test system: Escherichia coli; assay: Bactericidal activity against Escherichia coli ATCC 25922 assessed as down regulation of phenylalanine metabolism gene expression at 4 times of MIC concentration measured after 90 mins incubation by RNA sequencing (RNA-seq) study; format: functional, organism-based
[30] = test system: Escherichia coli; assay: Bactericidal activity against Escherichia coli ATCC 25922 assessed as change in cell death associated gene expression by measuring down-regulation of UDP-glucose 4-epimerase (galE, D1792_RS06370) gene expression at 4 times of MIC concentration measured after 90 mins incubation by RNA sequencing (RNA-seq) study; format: functional, organism-based
[31] = test system: Escherichia coli; assay: Bactericidal activity against Escherichia coli ATCC 25922 assessed as change in amino acid metabolism gene expression at 4 times of MIC concentration measured after 90 mins incubation by RNA sequencing (RNA-seq) study; format: functional, organism-based

C=C(C)[C@@H]1CCC(C)=C[C@H]1c1c(OCCCNC(=N)N)cc(CCCCC)cc1OCCCNC(=N)N
Activity [1]: Active
MIC [2]: 3.12 µg/mL
MIC [3]: 3.12 µg/mL
Activity [4]: Active
MIC [5]: 3.12 µg/mL (≈ 6.09 µM)
Activity [6]: 27.7%
MIC [7]: 0.39 µg/mL
inhibition (INH) [8]: 99.9%
viability at 24 h, 3.125 microg/ml [9]: 111%
MIC [10]: 0.39 µg/mL
Activity [11]: 54%
MIC [12]: 6.25 µg/mL
Activity [13]: 11.2%
viability at 24 h, 3.125 microg/ml [14]: 92.3%
Activity [15]: Active
MIC [16]: 3.12 µg/mL (≈ 6.09 µM)
MIC [17]: 0.39 µg/mL
Activity [18]: Active
Activity [19]: Active
Activity [20]: Active
Activity [21]: 33.7%
MIC [22]: 1.56 µg/mL
MIC [23]: 0.78 µg/mL
MIC [24]: 6.25 µg/mL (≈ 12.2 µM)
Activity [25]: 19.8%
MIC [26]: 0.39 µg/mL
MIC [27]: 1.56 µg/mL
viability at 24 h, 1.56 microg/ml [28]: 113%
Activity [29]: Active
Activity [30]: Active
Activity [31]: Active
